According to patent US6846842B2, “Pyruvate ester composition and method of use for resuscitation after events of ischemia and reperfusion” (Beth Israel Deconess Medical Center, Inc., priority 1999, dated 2005):

Key:
[1] = concentrations of 1 Mol/liter or less, standing for 48 hrs; cited from earlier work
[2] = test system: ischemia/reperfusion mucosal injury, small intestine; assay: Rat model of superior mesenteric artery occlusion (ischemia/reperfusion mucosal injury and barrier dysfunction); format: in vivo, male Sprague-Dawley rats; settings: for mucosal permeability (FITC-dextran, everted gut sac): during reperfusion; for mucosal thickness (MT) / villous height (VH): 28 mM infusate, mean ± SEM, n=6
Procedure: The model system and calculation parameters are illustrated in FIG. 3.
Heart rate and mean arterial blood pressure were measured via a right carotid arterial catheter. The left internal jugular vein was cannulated for intravenous infusions.
Controls (n=6) received lactated Ringer's solution (lactate, […], 111.5 ml/kg/hr infusion, 1.5 ml/kg bolus prior to ischemia, and a 3.0 ml/kg bolus prior to reperfusion). Experimental groups (n=6 each) received similar volumes (3 ml) of either pyruvate, Na salt (28 mM) or pyruvate ethyl ester (28 mM), prepared in accordance with the method of this invention as shown in Table 2 and at a dosage rate equivalent to 10 mg/kg/hr. Small intestinal mucosal-to-serosal permeability (CMS, nl/min/cm^2) of FITC- dextran (mw=4 kDA) was evaluated using an everted gut sac technique as previously described by Wattanasirichaigoon (1999). Permeability was measured at baseline, after 30 and 60 minutes of ischemia ([…]) respectively, and after 30 and 60 minutes of reperfusion (R30 and R60, respectively). Histologic samples at baseline, 160 and R60 were evaluated for villous height (VH, μ) and mucosal thickness (MT, μ). Mucosal injury grade was determined according to the method described by Chiu et al. (1970), scored as in Table 3, as follows:
Data were summarized as means±standard error of the mean. Significances of differences were determined using Student's t-test. Differences were considered significant for p<0.05.

[3] = Stability and enolization of pyruvate esters in Ringer's solution (NMR, ultraviolet absorption); format: physicochemical; settings: for average absorption, corrected for blanks: 1 mMolar solution, 230-260 nm; for absorbance: 28 mM solution, 300-340 nm
Procedure: Specifically, the preferred embodiment of this “pyruvated” Ringer's solution for use in NMR, stability, and subsequent biological studies is shown in Table 2.
Following the procedural recommendations for analysis of Margolis et al. (1986) with respect to scanning times and frequencies on a 400 MHz spectrometer operating in pulse. […] The ultraviolet absorptions of these solutions were also measured periodically over the 230-260 nm range and 300-340 nm span, where changes in enol formation become evident, and provided confirmatory evidence about the distinctly different salvation properties of pyruvate ester analogs in comparison to pyruvate salts applied in the various methods of prior art.
The experimental sequence in which to establish the greater utility of the pyruvate derivatives in this invention follows along the same lines as the comparative spectral experiments just described.
When 28 mM solutions were examined in a similar manner at 300-340 nm, the absorbance of pyruvate remained unchanged before and after calcium addition at a value of 0.03, while the ethyl pyruvate solutions become noticeably straw colored to the naked eye, rising in absorbance from 0.07 to 0.85. The yellow coloration and increases in spectrophotometric absorption in the ultraviolet region confirms the formation of a 1,3-conjugated ketone system, as would result from the enolization of ethylpyruvate under conditions which appear not to enolize pyruvic acid.

[4] = I60 (after 60 minutes of ischemia)
[5] = R60 (after 60 minutes of reperfusion)

| Compound | dimer (4-hydroxy-4-methyl-2-ketoglutaric acid) formed [1] | hydrate formed [1] | mucosal permeability (FITC-dextran, everted gut sac) ([2]; FIG. 4) | average absorption, corrected for blanks ([3]; absence of calcium, pH 7.2) | mucosal thickness (MT) ([2]; Baseline) [μ] | villous height (VH) ([2]; Baseline) [μ] | mucosal thickness (MT) [2, 4] [μ] | villous height (VH) [2, 4] [μ] | mucosal thickness (MT) [2, 5] [μ] | villous height (VH) [2, 5] [μ] | mucosal injury score ([2]; Chiu grade 0-5 (Table 3), FIG. 5) | cytoprotection as judged by the extent of permeability increase ([2]; FIG. 4) | villous height and mucosal thickness ([2]; during both ischemia and reperfusion, p<0.01) | absorbance ([3]; after calcium addition) | absorbance ([3]; before calcium addition) | average absorption, corrected for blanks ([3]; after addition of calcium) | stability of aqueous solution ([3]; in the presence of calcium salts (Ringer's solution)) |
| --- | --- | --- | --- | --- | --- | --- | --- | --- | --- | --- | --- | --- | --- | --- | --- | --- | --- |
| CC(=O)C(=O)[O-].[Na+] [Na Pyruvate (1), sodium pyruvate] | 20-25% | 6-10% | significantly decreased | – | – | – | – | – | – | – | – | – | – | – | – | – | – |
| CC(=O)C(=O)O [pyruvic acid, reference compound] | – | – | – | 0.15 | – | – | – | – | – | – | – | – | – | – | – | – | – |
| Lactate [reference compound] | – | – | – | – | 553 ± 34 | 470 ± 30 | 298 ± 32 | 244 ± 20 | 141 ± 22 | 130 ± 25 | – | – | – | – | – | – | – |
| CCOC(=O)C(C)=O [Ethyl pyruvate (4), ethyl pyruvate] | – | – | significantly decreased | 0.2 | 583 | 486 ± 12 | 466 | 381 ± 24 | 352 | 296 ± 26 | significant diminution | significant trend towards effecting earlier and greater cytoprotection | significantly maintained | 0.85 | 0.07 | 0.41 | more stable aqueous solution than sodium pyruvate |
